For data set [1], the system named is HCV RNA-replicating cell line AVA5. Description: Normalized Viral Assay. In kind it is cell-based, Hepatitis C virus. How it is done:
(§1) Primary in vitro anti-HCV screen. The antiviral activity of test compounds were assayed in the stably HCV RNA-replicating cell line, AVA5, derived by transfection of the human hepatoblastoma cell line, Huh7 (Blight, et al., 2000, Science 290: 1972). The test compounds were added to dividing cultures once daily for three days. The media was changed with each addition of the compounds. Cultures generally start the assay at 30–50% confluence and reach confluence during the last day of treatment.

For data set [2], the system named is HCV RNA in stably HCV RNA-replicating cell line AVA5. The experiment in a line: Primary in vitro anti-HCV screen: intracellular HCV RNA levels in AVA5 cells (branched DNA assay). It counts as cell-based, Hepatitis C virus. The note with it: 10 μM, AVA5, duplicate cultures; for HCV % Control: HCV RNA as percentage of untreated cultures; for HCV Copies/ml: once daily for three days. The procedure: Primary in vitro anti-HCV screen. The antiviral activity of test compounds were assayed in the stably HCV RNA-replicating cell line, AVA5, derived by transfection of the human hepatoblastoma cell line, Huh7 (Blight, et al., 2000, Science 290: 1972). The test compounds were added to dividing cultures once daily for three days. The media was changed with each addition of the compounds. […] Intracellular HCV RNA levels and cytotoxicity are assessed 24 hours after the last dose of compound.
(§2) Assays were conducted using a single dose of test compound. Duplicate cultures for HCV RNA levels (on 48-well plates) and triplicate cultures for cytotoxicity (on 96-well plates) are used.
(§3) Intracellular HCV RNA levels were measured using a commercial assay (Veresant®, Bayer Diagnostics, Inc. Ross, et al. (2002) J. Virol. Meth. 101:159–168, Quantitation of hepatitic C virus RNA by third generation branched DNA-based signal amplification assay). Cytotoxicity was measured using an established neutral red dye uptake assay (Korba, B. E. and J. L. Gerin. 1992. Use of a standardized cell culture assay to determine activities of nucleoside analogs against hepatitis B virus relication. Antivir. Res. 19:55–70). HCV RNA levels in the treated cultures are expressed as a percentage of the mean levels of RNA detected in untreated cultures. A level of 30% or less, HCV RNA relative to control cultures may be considered to be a positive antiviral effect. A level of 50% or less, neutral red dye uptake relative to control cultures may be considered to be a cytotoxic effect.

In data set [3] the test system is AVA5 cell line (derived from human hepatoblastoma cell line Huh7). The experiment in a line: Primary screen cytotoxicity: neutral red dye uptake. It counts as cell-based. The note with it: 10 μM, AVA5; for Neutral Red % Control: dye uptake relative to untreated cultures. How it is done: as §1, §2, §3
Data set [4] has as its system AVA5 cell line. The experiment in a line: MTS Cell Viability.
Data set [5] has as its system AVA5 cell line. Description: ATP Cell Viability.

Values joined by “and” are separate entries in the source; they are usually repeats but may differ in a detail not shown here. Equal entries are not always repeated.

`O=c1oc2ccccc2c(Sc2ccc(Br)cc2)c1Sc1ccc(F)cc1` [compound 412]: the “Normalized Viral Assay” value in data set [1] (1 μM) is recorded as 55.65; in data set [1] (5 μM) it was 28.13; in data set [1] (10 μM) it was 16.13.

Regarding `Cc1ccc(Sc2c(Sc3ccc(F)cc3Cl)c3ccccc3oc2=O)cc1C` [VQ_437], in data set [2], the “HCV % Control” value is 41 % Control and 38 % Control; the “HCV Copies/ml” value is 556515 Copies/ml and 507191 Copies/ml.

Take `O=c1cc(Sc2cc(Cl)ccc2Cl)c2cc(F)ccc2o1` [compound 901]: the “HCV % Control” value in data set [2] came to 63 % Control. The “HCV Copies/ml” value in data set [2] (listed as VQ_901) is 851852 Copies/ml and 846803 Copies/ml. For the same molecule, in data set [3] (listed as VQ_901), the “Neutral Red % Control” value is 102 % Control and 100 % Control. Further, the “Neutral Red O.D.” value in data set [3] (listed as VQ_901) is 2.287 O.D. and 2.241 O.D. The “Normalized Viral Assay” value is reported as 24.87 in data set [1] (1 μM), 12.80 in data set [1] (5 μM) and 8.34 in data set [1] (10 μM). The “MTS Cell Viability” value stood at 107.32 in the data set with AVA5 cell line [4] (1 μM), 97.37 with AVA5 cell line [4] (5 μM) and 86.10 with AVA5 cell line [4] (10 μM). Further, the entries for the “ATP Cell Viability” value in the data set with AVA5 cell line [5] (1 μM), with AVA5 cell line [5] (5 μM) and in the data set with AVA5 cell line [5] (10 μM) were 105.62, 106.63 and 79.01, respectively.

Turning to `COc1ccc2oc(=O)cc(Sc3ccc(F)cc3F)c2c1` [compound 830], the “Normalized Viral Assay” value in data set [1] (1 μM) is recorded as 87.63; in data set [1] (5 μM), 46.87; in data set [1] (10 μM), 40.35. Besides, the “MTS Cell Viability” value with AVA5 cell line [4] (1 μM) is listed as 112.38; with AVA5 cell line [4] (5 μM) it was 101.06; with AVA5 cell line [4] (10 μM), 98.85. In addition, the figures for the “ATP Cell Viability” value in the data set with AVA5 cell line [5] (1 μM), in the data set on AVA5 cell line [5] (5 μM) and in the data set on AVA5 cell line [5] (10 μM) were 106.44, 97.11 and 104.41, respectively.

Turning to `Cc1cc(C)cc(Sc2c(Sc3ccc(F)cc3Cl)c3ccccc3oc2=O)c1` [VQ_473], in data set [2], the “HCV % Control” value is reported as 39 % Control; the “HCV Copies/ml” value is 529743 Copies/ml and 523506 Copies/ml.

In the case of `Cc1cc(C)cc(Sc2c(Sc3cccc(Cl)c3)c3ccccc3oc2=O)c1` [VQ_468], in data set [2], the “HCV % Control” value was 23 % Control and 24 % Control; the “HCV Copies/ml” value is 306102 Copies/ml and 318777 Copies/ml.

With `COc1ccc2oc(=O)cc(Sc3ccccc3F)c2c1` [compound 824], the “HCV % Control” value in data set [2] (listed as VQ_824) is 101 % Control and 90 % Control. Moreover, the “HCV Copies/ml” value in data set [2] (listed as VQ_824) is 1357786 Copies/ml and 1211659 Copies/ml. Further, the “Neutral Red % Control” value in data set [3] (listed as VQ_824) is 99 % Control and 102 % Control. Also, the “Neutral Red O.D.” value in data set [3] (listed as VQ_824) is 2.214 O.D. and 2.274 O.D. Moreover, the “Normalized Viral Assay” value was 52.29 in data set [1] (5 μM) and 17.28 in data set [1] (10 μM). Also, the “MTS Cell Viability” value in the data set with AVA5 cell line [4] (5 μM) is listed as 94.56; in the data set on AVA5 cell line [4] (10 μM) it was 84.15. Also, the “ATP Cell Viability” value in the data set with AVA5 cell line [5] (5 μM) amounted to 91.28; in the data set on AVA5 cell line [5] (10 μM) it was 75.61.

For `Cc1cc(C)cc(Sc2c(Sc3ccc(F)cc3Cl)c3ccccc3oc2=O)c1` [compound 473], the results for the “Normalized Viral Assay” value in data set [1] (1 μM), in data set [1] (5 μM) and in data set [1] (10 μM) were 68.16, 40.79 and 12.45, respectively.

With `Cc1ccc(Sc2c(Sc3ccc(F)cc3Cl)c3ccccc3oc2=O)cc1C` [compound 437], the entries for the “Normalized Viral Assay” value in data set [1] (1 μM), in data set [1] (5 μM) and in data set [1] (10 μM) were 59.33, 34.83 and 20.41, respectively.

As for `O=c1oc2ccccc2c(Sc2ccc(Br)cc2)c1Sc1ccc(F)cc1` [VQ_412], in data set [2], the “HCV % Control” value was 54 % Control and 49 % Control; the “HCV Copies/ml” value is 726473 Copies/ml and 656755 Copies/ml.
